Data taken from US8658206B2, “Compositions comprising strontium and vitamin D and uses thereof” (Mokwalo SA, priority 2004, dated 2014).

Assays:
[1] = relative to cholecalciferol itself; cited from earlier work
[2] = Determination of solubility velocity by ICP-MS in 0.1 M hydrochloride solution; conditions: 0.1 M HCl, 37° C., 84Sr signal by ICP-MS
Protocol: Determination of Solubility Velocity by Inductively Coupled Plasma-Mass Spectrometry (ICP-MS)
The solubility is measures as strontium signals over time using ICP-MS. Using this technique it is possible to follow multiple isotopes of the element, here, ^84Sr, ^86Sr, ^87Sr and ^88Sr.
A hydrochloride solution (0.1 M) was added to the sample and the sample then immediately enters, by means of a peristaltic pump, the atomizer of the ICP-MS apparatus. The pump speed was 4.4 ml/min.
The hydrochloride concentration of 0.1 M equals the concentration of HCl in the stomach. The temperature of the HCl solution was 37° C.
The solubility velocity of the compound is obtained by analysing the slopes of the front curves. The first curve represents the experiment and the second curve the apparatus, thus the difference between the slopes of the two curves are used to calculate the solubility velocity by division with the top value.

solubility velocity in hydrochloride [2]	SMILES	times more effective in terms of bioavailability than cholecalciferol [1]
	C=C1/C(=C\C=C2/CCC[C@]3(C)[C@@H]([C@H](C)CCCC(C)(C)O)CC[C@@H]23)C[C@@H](O)C[C@@H]1O [1,25 dihydroxycholecalciferol]	ten
	C=C1CC[C@H](O)C/C1=C/C=C1\CCC[C@]2(C)[C@@H]([C@H](C)CCCC(C)(C)O)CC[C@@H]12 [25-hydroxycholecalciferol]	five
very high	[Cl-].[Cl-].[Sr+2] [strontium chloride]	
